Data on six molecules can be found in patent US9359398B2, “Compounds for immunoproteasome inhibition” (Onyx Therapeutics, Inc., priority 2010, dated 2016).

One experiment deals with immunoproteasome (L7) (Homo sapiens, UniProt P28062). The experiment in a line: Enzyme kinetic assay of chymotrypsin-like (CT-L) activity, isolated 20S immunoproteasome prep. The experiment is classed as biochemical. Conditions: for EC50 ratio (B5/L7): 20S ratio: EC50 constitutive / EC50 immunoproteasome, greater than one = prefers immunoproteasome. An excerpt:
(§1) This can be done using enzyme kinetic assays such as those disclosed in U.S. application Ser. No. 09/569,748, Example 2 and Stein et al., Biochem. […] A ratio of less than one denotes the molecule inhibits the CT-L activity of the constitutive proteasome better than that of the immunoproteasome. Ratios greater than one signifies the molecule inhibits chymotrypsin-like activity of the immunoproteasome better than that of the constitutive proteasome.

Experiment [1] addresses constitutive proteasome (B5) (Homo sapiens, UniProt P28074). In words: Enzyme kinetic assay of chymotrypsin-like (CT-L) activity, isolated 20S constitutive proteasome prep. The experiment is classed as biochemical. The conditions noted are these: isolated 20S proteasome prep with greater than 90% constitutive proteasome subunits.
Text: as §1

For the molecule `C[C@@H](NC(=O)CN1CCOCC1)C(=O)N[C@@H](Cc1c[nH]c2ccccc12)C(=O)N[C@@H](Cc1ccccc1)B(O)O`, the “EC50 ratio (B5/L7)” value on immunoproteasome (L7) is 6.49.
`C[C@@H](NC(=O)CN1CCOCC1)C(=O)N[C@@H](Cc1c[nH]c2ccccc12)C(=O)N[C@@H](Cc1ccccc1)C(=O)[C@@]1(C)CO1`: the “EC50 for constitutive proteasome (B5)” value in experiment [1] is “Inactive”. Besides, the “EC50 ratio (B5/L7)” value on immunoproteasome (L7) is listed as >>1.0.
In the case of `C[C@H](NC(=O)CN1CCOCC1)C(=O)N[C@@H](Cc1ccc(O)cc1)C(=O)N[C@@H](Cc1ccccc1)C(=O)[C@@]1(C)CO1`, on immunoproteasome (L7), the “EC50 ratio (B5/L7)” value came to 17.04.
Same read-out and setting: for `CC(C)C[C@H](NC(=O)[C@H](Cc1ccccc1)NC(=O)[C@H](CC(C)C)NC(=O)[C@H](CCc1ccccc1)NC(=O)CN1CCOCC1)B(O)O` the value was 1.10.
For the molecule `CC(C)C[C@H](NC(=O)[C@H](Cc1ccccc1)NC(=O)c1cnccn1)C(=O)[C@@]1(C)CO1`, in experiment [1], the “EC50 for constitutive proteasome (B5)” value was “Inactive”. Besides, the “EC50 for immunoproteasome (L7)” value on immunoproteasome (L7) (CT-L activity, isolated 20S proteasome prep with greater than 90% immunoproteasome subunits) is on record as “Inactive”.
Regarding `C[C@H](NC(=O)CN1CCOCC1)C(=O)N[C@@H](Cc1ccc(O)cc1)C(=O)N[C@@H](Cc1ccccc1)B(O)O`, the “EC50 ratio (B5/L7)” value on immunoproteasome (L7) came out at 18.34.
